Patent publication US20230151025A1, “SUBSTITUTED THIAZOLOPYRIDINES, SALTS THEREOF AND THEIR USE AS HERBICIDALLY ACTIVE SUBSTANCES” (Bayer Aktiengesellschaft, priority 2020, published 2023)

How the values were obtained:
Assay type in all cases: in vivo
[1] = system: Amaranthus retroflexus (AMARE); assay: Herbicidal post-emergence action (B), 1280 g/ha; conditions: rated visually after about 3 weeks vs untreated controls
Excerpt: (§1) ABUTH: Abutilon theophrasti AGSTE: Agrostis tenuis ALOMY: Alopecurus myosuroides AMARE Amaranthus retroflexus DIGSA: Digitaria sanguinalis ECHCG: Echinochloa crus-galli KCHSC: Kochia scoparia LOLRI: Lolium rigidum MATIN: Matricaria inodora POAAN: Poa annua POLCO: Polygonum convolvulus SETVI: Setaria viridis STEME: Stellaria media VERPE: Veronica persica VIOTR: Viola tricolor
(§2) Seeds of mono- and dicotyledonous weed plants were placed in plastic pots in sandy loam soil (doubly sown with in each case one species of mono- or dicotyledonous weed plants per pot), covered with soil and cultivated in a greenhouse under controlled growth conditions. 2 to 3 weeks after sowing, the test plants were treated at the one-leaf stage. The compounds of the invention, formulated in the form of wettable powders (WP) or as emulsion concentrates (EC), were applied onto the green parts of the plants as aqueous suspension or emulsion with addition of 0.5% additive at a water application rate of 600 liters per hectare (converted). After the test plants had been kept in the greenhouse under optimum growth conditions for about 3 weeks, the activity of the preparations was rated visually in comparison to untreated controls. For example, 100% activity=the plants have died, 0% activity=like control plants.
(§3) Tables B1 to B12, below, show the effects of selected compounds of the general formula (I) according to table 1 on various harmful plants and an application rate corresponding to 1280 g/ha obtained by the experimental procedure mentioned above.

[2] = system: Stellaria media (STEME); assay: Herbicidal post-emergence action (B), 1280 g/ha
Excerpt: as §1, §2, §3

[3] = system: Poa annua (POAAN); assay: Herbicidal pre-emergence action (A), 1280 g/ha; conditions: visual grading after ca. 3 weeks vs untreated controls, 100% = plants have died off, 0% = as control plants
Excerpt: as §1
(§4) Seeds of mono- and dicotyledonous weed plants were sown in plastic pots (double sowings with one species of mono- and one species of dicotyledonous weed plants per pot), in sandy loam, and covered with soil. The compounds according to the invention, formulated in the form of wettable powders (WP) or as emulsifiable concentrates (EC), were applied to the surface of the covering soil as aqueous suspension or emulsion, with the addition of 0.5% of an additive, at an application rate of 600 l of water per hectare (converted). Following treatment, the pots were placed in a greenhouse and kept under optimum growth conditions for the test plants. The visual grading of the damage to the test plants was carried out after ca. 3 weeks in comparison to untreated controls (herbicidal effect in percent (%): 100% effect=plants have died off, 0% effect=as control plants).
(§5) Tables A1 to A12, below, show the effects of selected compounds of the general formula (I) according to table 1 on various harmful plants and an application rate corresponding to 1280 g/ha obtained by the experimental procedure mentioned above.

[4] = system: Stellaria media (STEME); assay: Herbicidal pre-emergence action (A), 1280 g/ha; conditions: visual grading after ca. 3 weeks vs untreated controls
Excerpt: as §1, §4, §5

[5] = system: Veronica persica (VERPE); assay: Herbicidal post-emergence action (B), 1280 g/ha
Excerpt: as §1, §2, §3

[6] = system: Echinochloa crus-galli (ECHCG); assay: Herbicidal pre-emergence action (A), 1280 g/ha; conditions: visual grading after ca. 3 weeks vs untreated controls, 100% = plants have died off, 0% = as control plants
Excerpt: as §1, §4, §5

[7] = system: Matricaria inodora (MATIN); assay: Herbicidal pre-emergence action (A), 1280 g/ha; conditions: visual grading after ca. 3 weeks vs untreated controls
Excerpt: as §1, §4, §5

[8] = system: Setaria viridis (SETVI); assay: Herbicidal pre-emergence action (A), 1280 g/ha; conditions: visual grading after ca. 3 weeks vs untreated controls
Excerpt: as §1, §4, §5

[9] = system: Poa annua (POAAN); assay: Herbicidal post-emergence action (B), 1280 g/ha; conditions: rated visually after about 3 weeks vs untreated controls
Excerpt: as §1, §2, §3

[10] = system: Amaranthus retroflexus (AMARE); assay: Herbicidal pre-emergence action (A), 1280 g/ha; conditions: visual grading after ca. 3 weeks vs untreated controls
Excerpt: as §1, §4, §5

[11] = system: Veronica persica (VERPE); assay: Herbicidal pre-emergence action (A), 1280 g/ha; conditions: visual grading after ca. 3 weeks vs untreated controls
Excerpt: as §1, §4, §5

[12] = system: Kochia scoparia (KCHSC; Bassia scoparia); assay: Herbicidal post-emergence action (B), 1280 g/ha
Excerpt: as §1, §2, §3

[13] = system: Kochia scoparia (KCHSC; Bassia scoparia); assay: Herbicidal pre-emergence action (A), 1280 g/ha; conditions: visual grading after ca. 3 weeks vs untreated controls
Excerpt: as §1, §4, §5

[14] = system: Lolium rigidum (LOLRI); assay: Herbicidal pre-emergence action (A), 1280 g/ha; conditions: visual grading after ca. 3 weeks vs untreated controls, 100% = plants have died off, 0% = as control plants
Excerpt: as §1, §4, §5

SMILES: Cc1nc2nc(-c3ccc(F)cc3)c(C)cc2s1 [Example I-090]
- herbicidal activity AMARE [1]: 100%
- herbicidal effect STEME [2]: 90%

SMILES: Cc1cc2sc(S(C)(=O)=O)nc2nc1-c1ccccc1 [Example I-080]
- POAAN, herbicidal effect in percent (%) [3]: 100%
- herbicidal effect STEME [4]: 100%
- herbicidal effect VERPE [5]: 90%

SMILES: Cc1nc2nc(-c3ccccc3)c(C)cc2s1 [Example I-115]
- POAAN, herbicidal effect in percent (%) [3]: 100%
- ECHCG, herbicidal effect in percent (%) [6]: 100%
- herbicidal effect MATIN [7]: 90%
- herbicidal effect STEME [4]: 100%
- herbicidal effect SETVI [8]: 100%

SMILES: C=CCNC(=O)CNc1nc2nc(-c3ccccc3F)c(Br)cc2s1 [Example I-067]
- herbicidal activity AMARE [1]: 90%

SMILES: Cc1cc2sc(Cc3ccccc3F)nc2nc1-c1ccccc1 [Example I-056]
- POAAN, herbicidal effect in percent (%) [3]: 100%
- herbicidal effect STEME [4]: 100%
- herbicidal activity POAAN [9]: 100%
- herbicidal activity AMARE [1]: 100%

SMILES: CCc1cc2sc(OC)nc2nc1-c1ccccc1OC [Example I-097]
- herbicidal effect SETVI [8]: 100%
- herbicidal effect VERPE [5]: 100%
- herbicidal effect STEME [2]: 100%

SMILES: COc1nc2nc(-c3ccccc3)c(C)cc2s1 [Example I-006]
- herbicidal activity AMARE [1]: 90%
- herbicidal effect VERPE [5]: 90%

SMILES: CCc1cc2sc(S(C)(=O)=O)nc2nc1-c1ccccc1C [Example I-061]
- herbicidal effect AMARE [10]: 90%
- herbicidal effect VERPE [11]: 90%
- herbicidal effect STEME [4]: 90%
- herbicidal effect KCHSC [12]: 90%

SMILES: Cc1cc2sc(S)nc2nc1C1=CCCCC1 [Example I-174]
- POAAN, herbicidal effect in percent (%) [3]: 100%
- herbicidal effect AMARE [10]: 100%

SMILES: Cc1cc(-c2nc3ncsc3cc2C)c(C)s1 [Example I-197]
- POAAN, herbicidal effect in percent (%) [3]: 100%
- herbicidal effect AMARE [10]: 90%
- herbicidal effect SETVI [8]: 100%
- herbicidal effect KCHSC [13]: 90%
- herbicidal effect VERPE [5]: 90%

SMILES: CCc1cc2sc([S+](C)[O-])nc2nc1-c1ccccc1 (centres unmarked) [Example I-050]
- POAAN, herbicidal effect in percent (%) [3]: 100%
- herbicidal effect AMARE [10]: 90%
- ECHCG, herbicidal effect in percent (%) [6]: 100%
- herbicidal effect MATIN [7]: 90%
- herbicidal effect STEME [4]: 90%
- LOLRI, herbicidal effect in percent (%) [14]: 90%
- herbicidal effect KCHSC [13]: 90%
- herbicidal activity AMARE [1]: 90%
- herbicidal effect VERPE [5]: 90%

SMILES: CCOc1nc2nc(-c3ccccc3F)c(Br)cc2s1 [Example I-101]
- herbicidal effect VERPE [5]: 90%

SMILES: Fc1ccccc1-c1nc2nc(S)sc2cc1Br [Example I-156, 6-bromo-5-(2-fluorophenyl)thiazolo[4,5-b]pyridine-2-thiol]
- herbicidal effect STEME [4]: 90%
- herbicidal activity AMARE [1]: 100%

SMILES: Cc1cc2sc([S+](C)[O-])nc2nc1-c1cccc(F)c1 (centres unmarked) [Example I-039]
- herbicidal effect STEME [2]: 90%
- herbicidal effect KCHSC [12]: 90%

SMILES: NC(=O)c1nc2nc(-c3ccccc3F)c(Br)cc2s1 [Example I-154, 6-bromo-5-(2-fluorophenyl)thiazolo[4,5-b]pyridine-2-carboxamide]
- POAAN, herbicidal effect in percent (%) [3]: 90%
- herbicidal effect AMARE [10]: 90%
- herbicidal effect STEME [4]: 90%
- herbicidal activity AMARE [1]: 90%
- herbicidal effect VERPE [5]: 100%
- herbicidal effect KCHSC [12]: 90%

SMILES: COc1ccccc1-c1nc2nc(S)sc2cc1C [Example I-164]
- POAAN, herbicidal effect in percent (%) [3]: 100%
- herbicidal effect SETVI [8]: 100%
- herbicidal effect KCHSC [13]: 90%
- herbicidal effect VERPE [5]: 90%

SMILES: CCc1cc2sc(SC)nc2nc1-c1ccccc1C [Example I-106]
- herbicidal effect STEME [4]: 100%
- herbicidal effect SETVI [8]: 100%

SMILES: Cc1nc2nc(-c3cc(Br)sc3C)c(Br)cc2s1 [Example I-142]
- POAAN, herbicidal effect in percent (%) [3]: 100%
- herbicidal effect MATIN [7]: 100%

SMILES: Cc1scc(-c2ccc3scnc3n2)c1C [Example I-201]
- ECHCG, herbicidal effect in percent (%) [6]: 100%
- herbicidal effect STEME [4]: 100%
- herbicidal effect SETVI [8]: 90%
- herbicidal effect KCHSC [13]: 90%
- herbicidal effect STEME [2]: 90%

SMILES: Cc1cc2sc(Cc3ccccc3F)nc2nc1-c1ccccc1F [Example I-073]
- POAAN, herbicidal effect in percent (%) [3]: 100%
- herbicidal effect STEME [4]: 90%

SMILES: Cc1cc2scnc2nc1-c1scnc1C [Example I-203]
- herbicidal effect AMARE [10]: 90%
- ECHCG, herbicidal effect in percent (%) [6]: 100%
- herbicidal effect STEME [4]: 90%
- herbicidal effect SETVI [8]: 100%
- herbicidal activity AMARE [1]: 90%
- herbicidal effect STEME [2]: 90%

SMILES: Cc1cc2sc([S+](C)[O-])nc2nc1-c1ccccc1Cl (centres unmarked) [Example I-024]
- herbicidal effect VERPE [11]: 90%
- herbicidal effect STEME [4]: 100%
- herbicidal effect KCHSC [13]: 100%
- herbicidal effect KCHSC [12]: 90%

SMILES: Cc1cc2scnc2nc1-c1c(C)sc(C)c1C [Example I-199]
- herbicidal effect MATIN [7]: 90%
- herbicidal effect STEME [4]: 100%
- herbicidal activity AMARE [1]: 100%

SMILES: Cc1cnsc1-c1nc2ncsc2cc1Br [Example I-202]
- herbicidal effect STEME [4]: 100%

SMILES: Cc1nc2nc(-c3ccccc3F)ccc2s1 [Example I-019]
- herbicidal effect STEME [4]: 90%
- herbicidal effect STEME [2]: 90%

SMILES: O=C(O)CNc1nc2nc(-c3ccccc3F)c(Br)cc2s1 [Example I-052]
- herbicidal activity AMARE [1]: 100%

SMILES: Cc1ncsc1-c1nc2nc(S)sc2cc1Br [Example I-209]
- herbicidal activity AMARE [1]: 90%
- herbicidal effect VERPE [5]: 90%

SMILES: Cc1ncsc1-c1nc2ncsc2cc1Br [Example I-204]
- POAAN, herbicidal effect in percent (%) [3]: 90%
- herbicidal effect AMARE [10]: 90%
- ECHCG, herbicidal effect in percent (%) [6]: 90%
- herbicidal effect STEME [4]: 90%
- herbicidal effect SETVI [8]: 100%
- herbicidal effect VERPE [5]: 90%

SMILES: CCc1cc2sc(S)nc2nc1-c1ccccc1 [Example I-162]
- herbicidal effect VERPE [11]: 90%
- herbicidal effect STEME [4]: 90%
- herbicidal activity AMARE [1]: 90%
- herbicidal effect VERPE [5]: 100%
- herbicidal effect KCHSC [12]: 90%

SMILES: Cc1cnsc1-c1nc2nc(S)sc2cc1Br [Example I-208]
- herbicidal activity AMARE [1]: 100%
- herbicidal effect VERPE [5]: 90%

SMILES: Cc1sc(Br)cc1-c1nc2ncsc2cc1Br [Example I-138]
- POAAN, herbicidal effect in percent (%) [3]: 100%
- herbicidal effect STEME [4]: 90%
- herbicidal effect SETVI [8]: 90%
- LOLRI, herbicidal effect in percent (%) [14]: 90%
- herbicidal activity POAAN [9]: 90%
- herbicidal effect VERPE [5]: 90%
